This is an account of results in patent US5597820A, “1, 4-benzoxazine derivative and pharmaceutical compositions containing the same” (Kanebo, Ltd., priority 1994, dated 1997).

Each structure is given as a SMILES string.

The target of the test is T1, Na^+ /H^+ exchange (Rattus norvegicus, UniProt P26431).
T1 construct: A supernatant was separated to prepare platelet-rich plasma; endogenous in cells; host or cells: platelets in platelet-rich plasma from male Wistar rats (abdominal aorta blood)
T1 sequence (P26431 whole entry): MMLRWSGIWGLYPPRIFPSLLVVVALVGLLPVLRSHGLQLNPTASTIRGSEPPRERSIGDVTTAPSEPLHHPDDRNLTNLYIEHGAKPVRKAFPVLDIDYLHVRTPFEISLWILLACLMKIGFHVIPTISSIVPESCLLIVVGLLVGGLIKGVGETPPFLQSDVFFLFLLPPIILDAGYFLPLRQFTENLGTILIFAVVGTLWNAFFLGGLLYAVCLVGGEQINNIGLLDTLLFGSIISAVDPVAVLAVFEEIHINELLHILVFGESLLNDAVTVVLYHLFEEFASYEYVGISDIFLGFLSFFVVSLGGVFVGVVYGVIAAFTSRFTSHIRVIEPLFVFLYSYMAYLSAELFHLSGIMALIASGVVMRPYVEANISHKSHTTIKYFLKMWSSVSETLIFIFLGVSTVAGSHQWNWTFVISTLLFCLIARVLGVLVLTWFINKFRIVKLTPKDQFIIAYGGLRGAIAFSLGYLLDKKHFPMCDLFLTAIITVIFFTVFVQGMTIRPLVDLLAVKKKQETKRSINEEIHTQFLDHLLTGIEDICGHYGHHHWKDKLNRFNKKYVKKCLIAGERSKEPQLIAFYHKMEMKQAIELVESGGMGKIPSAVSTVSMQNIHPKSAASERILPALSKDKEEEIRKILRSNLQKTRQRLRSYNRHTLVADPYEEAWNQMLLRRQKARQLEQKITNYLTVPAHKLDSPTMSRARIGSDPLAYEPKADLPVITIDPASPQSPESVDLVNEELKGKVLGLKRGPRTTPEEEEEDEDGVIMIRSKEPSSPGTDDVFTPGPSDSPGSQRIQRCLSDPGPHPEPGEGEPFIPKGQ
The test can be described thus: Na^+ /H^+ Exchange inhibitory activity (sodium propionate-induced swelling of platelets). The class given is cell-based, rat (male Wistar rats). The conditions noted are these: rat platelet-rich plasma, 37° C. As for the experimental part: The compounds of the present invention were assessed for their Na^+ /H^+ exchange inhibitory activity based on an activity to inhibit sodium propionate-induced swelling of platelets in accordance with the method of Rosskoph et al. [Journal of Hypertension, 9, 231-238 (1991)].
First, platelet-rich plasma was prepared in accordance with the method of Mammen et al. [Diabetes Research and Clinical Practice, 9(3), 265-272 (1990)]. Briefly, male Wistar rats weighing 190 to 420 g were abdominally operated under anesthesia with ether and blood was taken from the abdominal aorta. For inhibiting blood coagulation, ACD solution (a mixture of 65 mM citric acid, 85 mM sodium citrate, 11 mM dextrose) was added to blood and this treated blood was centrifuged at 90× g for 10 minutes. A supernatant was separated to prepare platelet-rich plasma.
Then, a solution of the test compounds in dimethylsulfoxide was added to 140 mM sodium propionate buffer solution. To this mixture was added the platelet-rich plasma prepared above and a decrease in optical density was recorded with the passage of time at 37° C. using a platelet aggregometer (turbidimeter) and a X-Y recorder to calculate a decrease rate in optical density after mixing with platelet-rich plasma [decrease rate in optical density in the presence of the test compounds (D)]. On the other hand, the solvent dimethylsulfoxide alone was used instead of the solution of the test compounds and the decrease in optical density was recorded in the similar manner to calculate a decrease rate in optical density [control (C)]. A swelling inhibitory rate (%) was calculated using the following formula:
Swelling inhibitory rate (%)=(1-D/C)×100
Consider `CCN1C(=O)C(C)(C)Oc2ccc(C(=O)NC(=N)N)cc21` [Example 7, N-amidino-2,2-dimethyl-4-ethyl-3-oxo-3,4-dihydro-2H-1,4-benzoxazine-6-carboxamide], for which 380 nM corresponded to half-maximal inhibition (IC50).

Molecule `CC[C@H]1Oc2cc(C(=O)NC(=N)N)ccc2N(C(C)C)C1=O` [Example 15, (R)-N-Amidino-2-ethyl-4-(2-propyl)-3-oxo-3,4-dihydro-2H-1,4-benzoxazine-7-carboxamide] registered an IC50 of 36 nM.

Molecule `CC(C)N1C(=O)C(C)(C)Oc2cc(C(=O)N=C(N)N)ccc21` [Example 1, N-amidino-2,2-dimethyl-4-(2-propyl)-3-oxo-3,4-dihydro-2H-1,4-benzoxazine-7-carboxamide] gave an IC50 of 200 nM.

For the molecule `N=C(N)NC(=O)c1nc(Cl)c(N)nc1N` [Amiloride, amiloride, reference compound], the IC50 is 13000 nM.

On to `CC[C@@H]1Oc2cc(C(=O)NC(=N)N)ccc2N(CC)C1=O` [Example 16, (S)-N-amidino-2,4-diethyl-3-oxo-3,4-dihydro-2H-1,4-benzoxazine-7-carboxamide], for which the IC50 came out at 45 nM.

For the molecule `CC1Oc2cc(C(=O)NC(=N)N)ccc2NC1=O` (stereo not drawn) [Example 8, N-amidino-2-methyl-3-oxo-3,4-dihydro-2H-1,4-benzoxazine-7-carboxamide], the half-maximal inhibitory concentration (IC50) amounted to 810 nM.

`CC[C@H]1Oc2cc(C(=O)NC(=N)N)ccc2N(CC)C1=O` [Example 17, (R)-N-amidino-2,4-diethyl-3-oxo-3,4-dihydro-2H-1,4-benzoxazine-7-carboxamide] registered an IC50 of 71 nM.

As to `CCC1Oc2cc(C(=O)NC(=N)N)ccc2N(C(C)C)C1=O` (stereo not drawn) [Example 9, N-amidino-2-ethyl-4-(2-propyl)-3-oxo-3,4-dihydro-2H-1,4-benzoxazine-7-carboxamide], the IC50 came out at 34 nM.

In the case of `CCN1C(=O)C(C)Oc2ccc(C(=O)NC(=N)N)cc21` (stereo not drawn) [Example 6, N-amidino-4-ethyl-2-methyl-3-oxo-3,4-dihydro-2H-1,4-benzoxazine-6-carboxamide], the IC50 came to 290 nM.

`CCN1C(=O)COc2cc(C(=O)NC(=N)N)ccc21` [Example 12, N-amidino-4-ethyl-3-oxo-3,4-dihydro-2H-1,4-benzoxazine-7-carboxamide] yielded a half-inhibitory concentration (IC50) of 360 nM.

`CCN1C(=O)C(C)Oc2cc(C(=O)NC(=N)N)ccc21` (stereo not drawn) [Example 4, N-amidino-4-ethyl-2-methyl-3-oxo-3,4-dihydro-2H-1,4-benzoxazine-7-carboxamide]: the midpoint of inhibition, the IC50, lay at 160 nM.

`CC(C)N1C(=O)COc2cc(C(=O)NC(=N)N)ccc21` [Example 3, N-amidino-4-(2-propyl)-3-oxo-3,4-dihydro-2H-1,4-benzoxazine-7-carboxamide] showed an IC50 of 170 nM.

Turning to `CCC1Oc2cc(C(=O)NC(=N)N)ccc2N(CC)C1=O` (stereo not drawn) [Example 13, N-amidino-2,4-diethyl-3-oxo-3,4-dihydro-2H-1,4-benzoxazine-7-carboxamide], the IC50 amounted to 83 nM.

`CC[C@@H]1Oc2cc(C(=O)NC(=N)N)ccc2N(C(C)C)C1=O` [Example 14, (S)-N-Amidino-2-ethyl-4-(2-propyl)-3-oxo-3,4-dihydro-2H-1,4-benzoxazine-7-carboxamide]: 73 nM corresponded to half-maximal inhibition (IC50).

In turn, `CC1Oc2cc(C(=O)NC(=N)N)ccc2N(C2CCCC2)C1=O` (stereo not drawn) [Example 10, N-amidino-4-cyclopentyl-2-methyl-3-oxo-3,4-dihydro-2H-1,4-benzoxazine-7-carboxamide] yielded an IC50 of 62 nM.
